Experimental data reported in PMC9714824, “Hexapeptides from mammalian inhibitory hormone hunt activate and inactivate nematode reproduction” (PLOS ONE, 2022).

Assays:
Caenorhabditis elegans = conditions: cited from earlier work
Excerpt: As a control compound there was synthesized EPL030, having the aa sequence KLKMNGKNIEPVFT. This is a scrambling of EPL001’s sequence, based on cards drawn at random by one of us (CRM). […] The figures for fecundity were EPL001 +43 ... || Returning to EPL030, the scrambled-sequence EPL001 comparator, this has engendered perplexity by displaying the same activity as EPL001 across multiple mammalian systems. Thus, EPL030 suppressed human prostate cancer cells in vitro more than EPL001 in two laboratories and the proliferation of rat bone marrow cells in vitro in a third.

rat bone marrow cells = test: Bone marrow cell assay, time-lapse cell counts over 24h; format: cell-based
Method: The method has been described previously at length. Bone marrow cells, consisting of various cell types including mesenchymal stem cells and fibroblasts, were cultured from adult male rats (Rattus norvegicus, SD strain). These cells were passaged from a growing primary stock in a T75 tissue culture flask (Sarstedt) into a 48 well tissue culture plate (IWAKI), with a cell density of 1 x 10^5/ml. The cell culture media, henceforth referred to as ‘supplemented a-MEMS,’ comprised α-MEMS media supplemented with 10% FCS and 1% penicillin/streptomycin (all Life Technologies, Carlsbad, CA, US). On the day of peptide addition to the cells, the supplemented α-MEMS was gently removed and fresh supplemented α-MEMS added, with 10% test material by volume to achieve micromolar concentrations, untreated controls receiving just fresh supplemented α-MEMS. (For dose levels see legends in respective result figures) All samples were filter sterilised using a Millex-GV […] syringe filter unit (Merck, Kenilworth, NJ, USA). The cells were imaged for 24 h using an incubated Zeiss Axiovert 135M microscope with a Prior Proscan II motorised stage, at 37 °C with a 5% CO2 in air feed. Each well of the 48-well tissue culture plate was then imaged for 24h every 5 min using Metamorph software (MDS Analytical Technologies, Wokingham, UK), with each well having four fields of view. The viability and cell numbers were reviewed by analysing the images captured over the 24h period and cell counts were taken at selected time points using the Metamorph software.
Fig 6 Bone marrow cells in culture exposed to long peptides. Cells were counted over 24h after exposure to the 14mer peptide EPL001 or its scrambled-sequence control EPL030 at 6μM final concentration or to the 20mer EPL120 at 5μM final concentration, compared to peptide-untreated controls.
Fig 7 Bone marrow cells in culture exposed to hexapeptides. Cells were counted over 24h after exposure to either EPL016 (= MKPLTG, the ‘Front 6’ of the 14mer EPL001) or EPL036 (= IEPVFT, the ‘Back 6’ of EPL030, the scrambled-sequence control of EPL001) at 1μM final concentration, compared to peptide-untreated controls.

Steinernema siamkayai [1] = test: Steinernema siamkayai reproduction and development on lipid agar plates with hexapeptides; format: in vivo; set-up: key to Infective juveniles / Adults: counts per plate, scaled from 0.05 ml subsamples to 20 ml; conditions: for Infective juveniles / Adults: S3 Table 2
Excerpt: (§1) The attempt was made here to replicate prior fecundity work in another species of nematode, the entomopathogenic (insect slaying) Steinernema siamkayai. Species confirmation involved standard morphological and molecular techniques (S3 File, Nematodes). S. siamkayai is a biocontrol agent of potential economic significance in global agriculture, reducing the need for pesticides. Crucial for deployment is the production of ‘infective juveniles’. These forms penetrate the larvae of insect pests, releasing a bacterium, Xenorhabdus spp., which ultimately kills the larvae. Stock solutions (5 mg mL^-1) of EPL036 (IEPVFT) and EPL630 (KLKMNG) were made up and stored at −20 °C. Lipid Agar plates were prepared by pouring 5 ml media in 60 mm plastic Petri dishes. The plates were inoculated with an overnight-grown bacterial culture of Xenorhabdus spp. (10^9 cfu/ml) at 100 μl/plate and incubated at 28 °C for 24h. Xenorhabdus bacteria are symbiotically associated with S. siamkayai. While multiplying, Xenorhabdus metabolises the constituents of the lipid agar and the resulting by-products are the food supplement for the nematodes that triggers the worms to grow and multiply. From the stock solutions, peptides were introduced individually into the centre of the Lipid Agar plates with Xenorhabdus lawn. Two concentrations of peptide were used, 4 and 8 μL of the 5 mg mL^-1 stock peptide solutions (making 20 and 40 μg of peptide per plate in total, respectively, i.e. ~6 and ~12 μM). Each peptide solution was uniformly spread using an L shaped spreader and allowed to absorb into the agar plate for 10 minutes. Nematodes were harvested beforehand as follows. Third-stage infective juveniles (IJs) of S. siamkayai were used to infect fourth instar Galleria larvae. Following larval death, the Galleria cadavers were placed on a White’s Trap to harvest fresh progeny within 5–6 days. After storage in sterile water, these new-generation IJs were concentrated and inoculated on the bacterial plates on Day 1 at 500 and 1000 IJs /plate. The eight treatments (two inocula at two peptide concentrations) and two controls (two inocula without peptides) were replicated (x3) and incubated at 28 °C. Observations of behaviour and morphology were made at intervals throughout the study, then on Day 5 (i.e. after 4 units of 24h) the nematodes were harvested. Two ml of distilled water was poured on each Petri dish and gently stirred to release the nematodes from the surface. The surface washings containing suspended nematodes were collected in a standard volume of 20 ml of distilled water. The number of mature adults (male and female) and the second-generation juveniles (J1, J2, J3 and pre-adults) were counted using a dissecting microscope (x10 magnification, 4 fields) in 0.05 ml subsamples (x3) and multiplied up to the standard volume of 20 ml.
Fig 2 Developmental impact on Steinernema siamkayai of hexapeptides after 4 days. INOCULUM = founding population of infective juveniles (IJs). ‘Infective juveniles’ on the vertical axis are mostly second-generation IJs. Peptides applied at the start of the study were EPL036 = IEPVFT, […] = KLKMNG. Total = Adults + Infective juveniles. Data are mean +/- SEM (average of 3 replicates). Statistical analysis: ANOVA. Control bars are doubly represented for ease of comparison. Note different vertical axes. […]

Steinernema siamkayai [2] = test: Nematode pilot study fecundity (S3 Table 1); format: in vivo; conditions: inoculum 5 IJs
Excerpt: as §1
Mean number of A) Infective juveniles and B) Adults following inoculation of Petri dishes treated with EPL036 and EPL630 at 4 µL and 8 µL and an untreated control; Petri dishes were initially inoculated with 5 infective juveniles of Steinernema siamkayai following the method used in the main manuscript (Single way ANOVA presented beneath each data set).

PC3 cells = test: MTS colorimetric viable cell assay, PC3; format: cell-based, human; conditions: for Difference in percentage terms between control and test OD means: PC3, 30 μM, 27h, MTS, 492 nm, triplicate
Method: (§2) Assays involving a range of peptides from 14mer down to 6mers assessed total viable PC3 or PNT2 cells using a 96-well plate MTS colorimetric assay (CellTiter 96 Aqueous One Solution Cell Proliferation Assay, Promega, Southampton, UK), with absorbance measured at 492 nm. Cells were seeded at 8,000 per well and grown for 27h. Peptides were administered at the outset to a final concentration of 30 μM (in 2 μl) to samples in triplicate. (A higher dosage was used than in the 14mer peptides study to shorten the timecourse of response.) Controls received buffer. Data are OD mean +/ − SEM, with statistical analysis by two tailed t-test. A time course study of the 14mers on PC3s, using the same technique, involved measurements at 24h and 48h.
(§3) Fig 5 Effects of a range of peptides on human prostate cancer cell growth in vitro. Assays involved a range of peptides from 14mers down to 6mers (Table 1), with viable cells assessed using a 96-well plate MTS colorimetric assay. Absorbance measured at 492 nm. Cells were seeded at 8,000 per well and grown for 27h. Peptides were administered at the outset to a final concentration of 30 μM (in 2 μl) to samples in triplicate. Controls received buffer. Data are OD mean +/- SEM, with statistical analysis by two tailed t-test. * p<0.05; **p<0.025.

PNT2 cells = test: MTS colorimetric viable cell assay, PNT2; format: cell-based, human; conditions: 30 μM, 27h, 492 nm, triplicate
Method: as §2, §3

DU145 cells = test: MTS viable cell assay, DU145 (Epistem); format: cell-based, human; conditions: DU145, 72h
Method: Further assays on human prostate cancer cells were conducted at a contract research organisation (Epistem, Manchester, UK). LNCaP or DU145 cells seeded at 3,000 cells/well across a 96-well plate were cultured in RPMI (phenol red free), 10% FCS, 1% sodium pyruvate, Pen/strep and L-glutamine for 24h before exposure to peptides, at a single dose level in the case of LNCaPs or multiple dose levels in the case of DU145s. (For dose levels see Results.) Controls received vehicle (1% PBS). For the DU145s peptide administration was repeated after 24h. 72h after the first administration (DU145s) or only administration (LNCaP) total viable cell numbers were measured colorimetrically (MTS) using a CellTiter 96 AQueous One Solution Cell Proliferation Assay (Promega, Southampton, UK), following manufacturer’s instructions. Briefly, the media on the plates was replaced with the CellTiter reagent diluted 1:5 in DMEM. The plates were returned to the incubator for 3 hours before reading absorbance at 492 nm on a FLUORstar OPTIMA (BMG Labtech). CellTiter data are the absorbance minus background values (CellTiter plus DMEM), expressed as (OD mean +/− SEM). Statistical analysis was by ANOVA, Dunnett’s multiple comparisons test.

[3] = 4 µL, inoculum 1000, mean of 3 reps
[4] = 8 µL, inoculum 1000, mean of 3 reps

**Q.** With MKPLTG [EPL016, MKPLTG, EPL001 Front 6] as the substance, how does the “Increase in cumulative offspring vs untreated controls” value (Caenorhabditis elegans) read?
**A.** Its value is 50%.

**Q.** And the “Reduction of the population of rat bone marrow cells” value (rat bone marrow cells; 1μM in the medium, controls increased by about the same percentage)?
**A.** The value was 18%.

**Q.** Which results are given for IEPVFT [EPL036, IEPVFT, EPL030 Back 6]?
**A.** Infective juveniles (Steinernema siamkayai [1]; 4 µL, inoculum 500, mean of 3 reps): 7482; Adults (Steinernema siamkayai [1]; [3]): 446; Infective juveniles (Steinernema siamkayai [1]; [3]): 13686; Infective juveniles (Steinernema siamkayai [1]; 8 µL, inoculum 500, mean of 3 reps): 9644; Adults (Steinernema siamkayai [1]; [4]): 10; Infective juveniles (Steinernema siamkayai [1]; [4]): 19161; Infective juveniles (Steinernema siamkayai [1]; 8 µL, inoculum 1000, rep 1): 19141; Infective juveniles (Steinernema siamkayai [1]; 8 µL, inoculum 1000, rep 2): 19149; Infective juveniles (Steinernema siamkayai [1]; 8 µL, inoculum 1000, rep 3): 19193; Egg production in females (Steinernema siamkayai [1]; compared with untreated controls, 48h exposure (Fig 3)): visibly bloated with eggs; Time after incubation to fully grown males and females (Steinernema siamkayai [1]; observational): 36 h; Time for infective juveniles to transform into pre-adults (Steinernema siamkayai [1]; observational): ≤ 24 h; Adults (Steinernema siamkayai [2]; 4 µL, mean of 9 reps): 1.7; Infective juveniles (Steinernema siamkayai [2]; 4 µL, mean of 9 reps): 43.2; Adults (Steinernema siamkayai [2]; 4 µL, rep 1): 1; Adults (Steinernema siamkayai [2]; 4 µL, rep 2): 1; Adults (Steinernema siamkayai [2]; 4 µL, rep 3): 2; Adults (Steinernema siamkayai [2]; 4 µL, rep 4): 1; Adults (Steinernema siamkayai [2]; 4 µL, rep 5): 2; Adults (Steinernema siamkayai [2]; 4 µL, rep 6): 2; Adults (Steinernema siamkayai [2]; 4 µL, rep 7): 2; Adults (Steinernema siamkayai [2]; 4 µL, rep 8): 2; Adults (Steinernema siamkayai [2]; 4 µL, rep 9): 2; Adults (Steinernema siamkayai [2]; 8 µL, mean of 9 reps): 0; Infective juveniles (Steinernema siamkayai [2]; 8 µL, mean of 9 reps): 75.8; Adults (Steinernema siamkayai [2]; 8 µL, rep 1): 0; Adults (Steinernema siamkayai [2]; 8 µL, rep 2): 0; Adults (Steinernema siamkayai [2]; 8 µL, rep 3): 0; Adults (Steinernema siamkayai [2]; 8 µL, rep 4): 0; Adults (Steinernema siamkayai [2]; 8 µL, rep 5): 0; Adults (Steinernema siamkayai [2]; 8 µL, rep 6): 0; Adults (Steinernema siamkayai [2]; 8 µL, rep 7): 0; Adults (Steinernema siamkayai [2]; 8 µL, rep 8): 0; Adults (Steinernema siamkayai [2]; 8 µL, rep 9): 0; Increase in cumulative offspring vs untreated controls (Caenorhabditis elegans): +79%; Effect on bone marrow cells in culture (rat bone marrow cells; 1μM final concentration, in words (Fig 7)): cytostatic

**Q.** For “MLKTGEKPVFKNNI [EPL143, Contiguous form of sSgII-14, an anagram of EPL001; benchmark for chi-squared test]”, which “Difference in percentage terms between control and test OD means” value (PC3 cells) is on record?
**A.** The value was −10.2%.

**Q.** And the “Difference in percentage terms between control and test OD means” value (PNT2 cells)?
**A.** The value was −20.6%.

**Q.** What about the “Test mean OD vs control mean” value (DU145 cells; 0.15 μM) of the same substance?
**A.** Its value is −4.3%.

**Q.** And the “Test mean OD vs control mean” value (DU145 cells; 150 μM (highest concentration))?
**A.** Its value is −18.7%.

**Q.** What does the source list for “MLKTGEKPNFKNNI [EPL141, Human version of EPL143, with sheep V replaced by human N9]”?
**A.** Difference in percentage terms between control and test OD means (PC3 cells): −22.6%; Mean OD as % of the EPL001 mean (PC3 cells; PC3 time course study, 24h): 56%; Difference in percentage terms between control and test OD means (PNT2 cells): −27.9%
